Results as given in patent publication US20220041588A1, “SUBSTITUTED IMIDAZO[1,2-A]PYRIDINE AND [1,2,4]TRIAZOLO[1,5-A]PYRIDINE COMPOUNDS AS RET KINASE INHIBITORS” (FOCHON PHARMACEUTICALS, LTD., priority 2018, published 2022).
pIC50: −log10 of the molar value.

Experiments:
[1] = system: LC-2/ad (CCDCl6-RET) cells; assay: Cell proliferation assay (MTS), LC-2/ad cells; assay type: cell-based; conditions: Homo sapiens, LC-2-ad, 72 h, LC-2/ad cells (CCDCl6-RET), 72 h incubation, MTS readout
Procedure: (§1) MTS testing kit was purchased from Promega. The RPMI-1640, F12, F12K, Fetal bovine serum and Penicillin-Streptomycin were purchased from BI. Glutamine and Dimethyl sulfoxide (DMSO) were purchased from Sigma. TT cells were cultured in F12K supplemented with 10% FBS and LC-2/ad cells were cultured in HamF12: RPMI1640 (1:1) supplemented with 10% FBS and 2 mM Glutamine.
(§2) To investigate whether a compound is able to inhibit the activity of RET fusion and/or mutation in cells, a mechanism-based assay using TT (RET C634W) and LC-2/ad (CCDCl6-RET) cell lines was developed. In this assay, the inhibition of RET fusion and/or mutation was reflected by the inhibition of cell proliferation of TT and LC-2/ad cells. Cells were plated into 96-well plates at the optimized cell density (TT: 5000 cells/well; LC-2/ad: 5000 cells/well). Plates were incubated at 37° C., with 5% CO2 for 24 h. Compounds were serially diluted and added to the plates with the final concentrations as 10000, 3333.3, 1111.1, […], 123.5, 41.2, 13.7, 4.6 and 1.5 nM. Plates were incubated at 37° C., with 5% CO2 for 72 h. An aliquot of 20 μL MTS/100 μL medium mixture solution were added to each well and the plates were incubated for exactly 2 h. The reaction was stopped by adding 25 μL 10% SDS to each well. The absorbance was measured by a microplate reader at 490 nm and 650 nm (reference wavelength). IC50 was calculated using GraphPad Prism 5.0.

TT (RET C634W) cells = assay: Cell proliferation assay (MTS), TT cells; assay type: cell-based; conditions: Homo sapiens, TT, 72 h, 72 h incubation, MTS readout
Procedure: as §1, §2

| SMILES | pIC50 [1] | pIC50 (TT (RET C634W) cells) |
| --- | --- | --- |
| COc1ccc(OC2CCN(c3ccc(-c4cc(-c5cnn(C)c5)cc5ncc(C#N)n45)cn3)CC2)nn1 [Example 19, 5-(6-(4-((6-methoxypyridazin-3-yl)oxy)piperidin-1-yl)pyridin-3-yl)-7-(1-methyl-1H-pyrazol-4-yl)imidazo[1,2-a]pyridine-3-carbonitrile] | 8.22 | 9.00 |
| Cc1ccc(OC2CCN(c3ccc(-c4cc(-c5cnn(C)c5)cc5ncc(C#N)n45)cn3)CC2)nn1 [Example 20, 7-(1-methyl-1H-pyrazol-4-yl)-5-(6-(4-((6-methylpyridazin-3-yl)oxy)piper-idin-1-yl)pyridin-3-yl)imidazo[1,2-a]pyridine-3-carbonitrile] | 7.77 | 8.22 |
| Cn1cc(-c2cc(-c3ccc(N4CCC(O)(Cc5ccccn5)CC4)nc3)n3c(C#N)cnc3c2)cn1 [Example 21, 5-(6-(4-hydroxy-4-(pyridin-2-ylmeth-yl)piperidin-1-yl)pyridin-3-yl)-7-(1-methyl-1H-pyrazol-4-yl)imidazo[1,2-a]pyridine-3-carbonitrile] | 7.92 | 7.92 |
| Cn1cc(-c2cc(-c3ccc(N4CCC(O)(Cc5ccccc5)CC4)nc3)n3c(C#N)cnc3c2)cn1 [Example 22, 5-(6-(4-benzyl-4-hydroxypiperidin-1-yl)pyridin-3-yl)-7-(1-methyl-1H-pyr-azol-4-yl)imidazo[1,2-a]pyridine-3-carbonitrile] | 9.00 | 8.40 |
| COc1ccc(CN2CCN(c3ccc(-c4cc(-c5cnn(CCN6CCOCC6)c5)cc5ncc(C#N)n45)cn3)CC2)cn1 [Example 26, 5-(6-(4-((6-methoxypyridin-3-yl)meth-yl)piperazin-1-yl)pyridin-3-yl)-7-(1-(2-morpholinoethyl)-1H-pyrazol-4-yl)imidazo[1,2-a]pyridine-3-carbonitrile] | 7.05 | 7.13 |
| COc1ccc(CN2CCN(c3ccc(-c4cc(-c5cnn(CCOC(C)C)c5)cc5ncc(C#N)n45)cn3)CC2)cn1 [Example 27, 7-(1-(2-isopropoxyethyl)-1H-pyrazol-4-yl)-5-(6-(4-((6-methoxypyridin-3-yl)methyl)piperazin-1-yl)pyridin-3-yl) imidazo[1,2-a]pyridine-3-carbonitrile] | 7.41 | 7.19 |
| Cn1cc(-c2cc(-c3ccc(N4CCN(Cc5ccccc5)CC4)nc3)n3c(C#N)cnc3c2)cn1 [Example 33, 5-(6-(4-benzylpiperazin-1-yl)pyridin-3-yl)-7-(1-methyl-1H-pyrazol-4-yl) imidazo[1,2-a]pyridine-3-carbonitrile] | 7.77 | 7.47 |
| Cn1cc(-c2cc(-c3ccc(N4CCN(Cc5ccn(C)n5)CC4)nc3)n3c(C#N)cnc3c2)cn1 [Example 37, 5-(6-(4-((1-methyl-1H-pyrazol-3-yl)methyl)piperazin-1-yl)pyridin-3-yl)-7-(1-methyl-1H-pyrazol-4-yl)imidazo [1,2-a]pyridine-3-carbonitrile] | 7.39 | 7.35 |
| Cn1cc(-c2cc(-c3ccc(N4CCN(CCS(=O)(=O)c5ccccc5)CC4)nc3)n3c(C#N)cnc3c2)cn1 [Example 38, 7-(1-methyl-1H-pyrazol-4-yl)-5-(6-(4-(2-(phenylsulfonyl)ethyl)piperazin-1-yl)pyridin-3-yl)imidazo[1,2-a]pyr-idine-3-carbonitrile] | 7.47 | 7.42 |
| Cn1cc(-c2cc(-c3ccc(N4CCN(C(=O)Cc5ccccn5)CC4)cc3)n3c(C#N)cnc3c2)cn1 [Example 45, 7-(1-methyl-1H-pyrazol-4-yl)-5-(4-(4-(2-(pyridin-2-yl)acetyl)piperazin-1-yl)phenyl)imidazo[1,2-a]pyridine-3-carbonitrile] | 7.30 | 7.18 |
| Cn1cc(-c2cc(-c3ccc(N4CCN(C(=O)Cc5ccccn5)CC4)nc3)n3c(C#N)cnc3c2)cn1 [Example 46, 7-(1-methyl-1H-pyrazol-4-yl)-5-(6-(4-(2-(pyridin-2-yl)acetyl)piperazin-1-yl)pyridin-3-yl)imidazo[1,2-a]pyri-dine-3-carbonitrile] | 7.44 | 7.43 |
